Where two headings read alike, the source gives them in different places. Numbered stars: 1 amine (or outer) side, 2 acyl side, 3 side chain; on linkers, the order of the positions; unused ones are H or OH. Square brackets hold non-standard residues; d marks the D form. Side chains are listed from the residue outwards. Peptide text beside a SMILES is read from it. * marks the point of attachment. C18 diacid = O=C(O)CCCCCCCCCCCCCCCCC(=O)*; γGlu = O=C(O)[C@H](CCC(=O)[*:2])N[*:1]; αMeF = C[C@](N)(Cc1ccccc1)C(=O)O; αMeK = C[C@](N)(CCCCN)C(=O)O; αMeS = C[C@](N)(CO)C(=O)O; AEEA = NCCOCCOCC(=O)O; Aib = CC(C)(N)C(=O)O
Experiments:
Format in all cases: cell-based
[1] = molecular target: T1, human GLP-1 receptor (GLP-1R) (Homo sapiens, UniProt P43220); experiment: cAMP assay, human GLP-1R cells
T1 construct: expressed in transfected cells
In short: (§1)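 Peptide-stimulated cAMP measured by two-step HTRF after a 30 min room-temperature incubation with receptor-expressing cells (hGLP-1R, hGIPR at 1×10^5 cells/ml; hGCGR at 2×10^5 cells/ml). Duplicate dilutions; EC50 from 4-parameter logistic fit of % Delta F.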

[2] = molecular target: T2, human glucagon receptor (GCGR) (Homo sapiens, UniProt P47871); experiment: cAMP assay, human GCGR cells; conditions: cAMP assay
T2 construct: expressed in transfected cells
In short: as §1

[3] = molecular target: T3, human glucose-dependent insulinotropic peptide receptor (GIPR) (Homo sapiens, UniProt P48546); experiment: cAMP assay, human GIPR cells; conditions: cAMP assay
T3 construct: expressed in transfected cells
T3 sequence (P48546 22-466): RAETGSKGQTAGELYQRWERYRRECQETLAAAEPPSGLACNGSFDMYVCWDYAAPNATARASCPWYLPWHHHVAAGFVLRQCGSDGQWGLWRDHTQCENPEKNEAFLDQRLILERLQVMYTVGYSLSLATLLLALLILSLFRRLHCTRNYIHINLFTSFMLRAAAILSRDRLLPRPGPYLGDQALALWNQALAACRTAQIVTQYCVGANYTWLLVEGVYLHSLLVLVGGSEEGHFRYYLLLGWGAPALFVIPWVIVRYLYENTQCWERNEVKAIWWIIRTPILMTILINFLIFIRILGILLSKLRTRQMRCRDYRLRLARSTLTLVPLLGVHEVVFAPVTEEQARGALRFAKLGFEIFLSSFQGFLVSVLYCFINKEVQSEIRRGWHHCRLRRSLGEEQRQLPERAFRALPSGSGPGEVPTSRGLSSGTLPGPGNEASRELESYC
In short: as §1

[4] = molecular target: T4, GLP-1R (INS1e assay) (Rattus norvegicus, UniProt P32301); experiment: INS1e assay, cAMP activity at GLP-1R; conditions: mono-lipidated peptides
T4 construct: endogenous in cells; host or cells: INS-1E cells
T4 sequence (P32301 22-463): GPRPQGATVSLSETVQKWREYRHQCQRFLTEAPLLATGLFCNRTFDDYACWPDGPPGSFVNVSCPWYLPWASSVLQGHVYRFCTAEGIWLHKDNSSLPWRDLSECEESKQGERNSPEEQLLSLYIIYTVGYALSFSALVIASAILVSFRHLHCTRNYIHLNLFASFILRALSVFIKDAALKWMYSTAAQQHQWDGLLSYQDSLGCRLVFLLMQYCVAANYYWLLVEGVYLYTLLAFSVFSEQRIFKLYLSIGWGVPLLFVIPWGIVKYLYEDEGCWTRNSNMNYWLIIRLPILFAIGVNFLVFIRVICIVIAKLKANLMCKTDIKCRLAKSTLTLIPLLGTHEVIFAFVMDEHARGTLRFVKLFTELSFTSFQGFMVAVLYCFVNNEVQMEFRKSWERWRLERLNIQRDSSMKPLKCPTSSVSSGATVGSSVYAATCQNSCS
In short: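 cAMP was quantified by two-step HTRF, using anti-cAMP cryptate donor and cAMP-d2 acceptor, each diluted 1/20 in conjugate and lysis buffer. EC50 values of the synthetic peptides were derived from the cAMP readout.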

[5] = cAMP assay, first determination (n1), read-out: Primary assay EC50 GLP-1R n1
[6] = cAMP assay, second determination (n2), read-out: Primary assay EC50 GLP-1R n2
[7] = mean of n1 and n2, read-out: Mean pM GLP-1R
[8] = first determination (n1), read-out: Primary assay EC50 Gluc-R (n1)
[9] = second determination (n2), read-out: Primary assay EC50 Gluc-R (n2)
[10] = first determination (n1), read-out: Primary assay EC50 GIP-R (n1)
[11] = second determination (n2), read-out: Primary assay EC50 GIP-R (n2)
[12] = mean of n1 and n2, read-out: INS1e assay EC50 Mean pM GLP-1R
[13] = replicate n1, read-out: INS1e assay EC50 GLP-1R n1
[14] = replicate n2, read-out: INS1e assay EC50 GLP-1R n2

T1 sequence (P43220 24-463): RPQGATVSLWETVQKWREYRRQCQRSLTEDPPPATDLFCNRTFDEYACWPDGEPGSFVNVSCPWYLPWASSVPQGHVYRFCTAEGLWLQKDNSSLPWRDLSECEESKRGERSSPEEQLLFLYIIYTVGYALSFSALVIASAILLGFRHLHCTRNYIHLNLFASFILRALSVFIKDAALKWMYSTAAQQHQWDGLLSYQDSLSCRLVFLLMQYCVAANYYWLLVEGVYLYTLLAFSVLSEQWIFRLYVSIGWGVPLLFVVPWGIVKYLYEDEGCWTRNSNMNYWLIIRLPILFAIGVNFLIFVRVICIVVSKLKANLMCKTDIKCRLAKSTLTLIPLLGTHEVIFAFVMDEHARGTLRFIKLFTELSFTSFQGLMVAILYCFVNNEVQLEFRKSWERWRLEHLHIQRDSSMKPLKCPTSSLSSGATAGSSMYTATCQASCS
T2 sequence (P47871 26-477): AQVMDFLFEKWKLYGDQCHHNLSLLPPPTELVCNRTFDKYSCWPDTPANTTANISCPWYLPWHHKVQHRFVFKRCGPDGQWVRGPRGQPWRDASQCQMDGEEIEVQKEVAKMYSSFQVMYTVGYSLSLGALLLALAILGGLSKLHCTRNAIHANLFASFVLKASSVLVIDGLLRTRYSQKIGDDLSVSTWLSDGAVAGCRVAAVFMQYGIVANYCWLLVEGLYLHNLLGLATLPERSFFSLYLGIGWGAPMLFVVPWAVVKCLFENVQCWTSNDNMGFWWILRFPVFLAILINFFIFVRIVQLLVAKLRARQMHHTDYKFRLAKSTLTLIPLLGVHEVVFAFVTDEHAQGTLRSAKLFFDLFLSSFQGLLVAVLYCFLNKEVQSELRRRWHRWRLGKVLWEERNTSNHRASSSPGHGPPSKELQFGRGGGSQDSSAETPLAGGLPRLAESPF

| SMILES | EC50 [1, 5] | EC50 [1, 6] | EC50 [1, 7] | EC50 [2, 8] | EC50 [2, 9] | EC50 [3, 10] | EC50 [3, 11] | EC50 [4, 12] | EC50 [4, 13] | EC50 [4, 14] | EC50 ([2]; Primary assay EC50 Gluc-R (n1), first determination (n1)) | EC50 ([2]; read-out: Primary assay EC50 Gluc-R (n2), second determination (n2)) | EC50 ([3]; Primary assay EC50 GIP-R (n1), first determination (n1)) | EC50 ([3]; read-out: Primary assay EC50 GIP-R (n2), second determination (n2)) |
| --- | --- | --- | --- | --- | --- | --- | --- | --- | --- | --- | --- | --- | --- | --- |
| CC[C@H](C)[C@H](NC(=O)[C@](C)(Cc1ccccc1)NC(=O)[C@H](CCC(=O)O)NC(=O)[C@](C)(CCCCN)NC(=O)[C@H](C)NC(=O)[C@H](C)NC(=O)[C@H](CCC(=O)O)NC(=O)CNC(=O)[C@H](CCC(=O)O)NC(=O)[C@H](CC(C)C)NC(=O)[C@](C)(Cc1ccccc1)NC(=O)[C@H](CO)NC(=O)[C@](C)(CO)NC(=O)[C@H](CCCCNC(=O)COCCOCCNC(=O)COCCOCCNC(=O)CC[C@H](NC(=O)CCCCCCCCCCCCCCCCC(=O)O)C(=O)O)NC(=O)[C@H](CC(=O)O)NC(=O)[C@H](CO)NC(=O)[C@@H](NC(=O)[C@](C)(Cc1ccccc1)NC(=O)[C@H](CO)NC(=O)CNC(=O)[C@H](CCC(=O)O)NC(=O)C(C)(C)NC(=O)[C@@H](N)Cc1c[nH]cn1)[C@@H](C)O)C(=O)N[C@@H](C)C(=O)N[C@@](C)(Cc1ccccc1)C(=O)N[C@H](C(=O)N[C@H](C(=O)N[C@@](C)(CCCCN)C(=O)NCC(=O)NCC(N)=O)C(C)C)C(C)C [compound 119] (H-H[Aib]EGS[αMeF]TSDK([AEEA-AEEA-γGlu-C18 diacid])[αMeS]S[αMeF]LEGEAA[αMeK]E[αMeF]IA[αMeF]VV[αMeK]GG-NH2; N-terminus assumed) | 18 pM | 15.7 pM | 17 pM | ≥ 25 nM | ≥ 25.2 nM | ≥ 25 nM | ≥ 25.2 nM | 2080 pM | 2710 pM | 1450 pM | – | – | – | – |
| CCCCCCCCCCCC(=O)NCCCCCC(=O)NCCCCCC(=O)NCCCC[C@H](NC(=O)[C@H](C)NC(=O)[C@H](C)NC(=O)[C@H](CCC(=O)O)NC(=O)CNC(=O)[C@H](CCC(=O)O)NC(=O)[C@H](CC(C)C)NC(=O)[C@](C)(Cc1ccccc1)NC(=O)[C@H](CO)NC(=O)[C@](C)(CO)NC(=O)[C@@H](NC(=O)[C@H](CC(=O)O)NC(=O)[C@H](CO)NC(=O)[C@@H](NC(=O)[C@](C)(Cc1ccccc1)NC(=O)[C@H](CO)NC(=O)CNC(=O)[C@H](CCC(=O)O)NC(=O)C(C)(C)NC(=O)[C@@H](N)Cc1c[nH]cn1)[C@@H](C)O)C(C)C)C(=O)N[C@@H](CCC(=O)O)C(=O)N[C@@](C)(Cc1ccccc1)C(=O)N[C@H](C(=O)N[C@@H](C)C(=O)N[C@@](C)(Cc1ccccc1)C(=O)N[C@H](C(=O)N[C@H](C(=O)N[C@@](C)(CCCCN)C(=O)NCC(=O)NCC(N)=O)C(C)C)C(C)C)[C@@H](C)CC [compound 132] | 11 pM | 7.1 pM | 9 pM | ≥ 28 nM | ≥ 28 nM | ≥ 28 nM | ≥ 28 nM | 122 pM | 129 pM | 115 pM | – | – | – | – |
| CCCCCCCCCCCC(=O)NCCOCCOCC(=O)NCCCC[C@H](NC(=O)[C@H](C)NC(=O)[C@H](C)NC(=O)[C@H](CCC(=O)O)NC(=O)CNC(=O)[C@H](CCC(=O)O)NC(=O)[C@H](CC(C)C)NC(=O)[C@](C)(Cc1ccccc1)NC(=O)[C@H](CO)NC(=O)[C@](C)(CO)NC(=O)[C@@H](NC(=O)[C@H](CC(=O)O)NC(=O)[C@H](CO)NC(=O)[C@@H](NC(=O)[C@](C)(Cc1ccccc1)NC(=O)[C@H](CO)NC(=O)CNC(=O)[C@H](CCC(=O)O)NC(=O)C(C)(C)NC(=O)[C@@H](N)Cc1c[nH]cn1)[C@@H](C)O)C(C)C)C(=O)N[C@@H](CCC(=O)O)C(=O)N[C@@](C)(Cc1ccccc1)C(=O)N[C@H](C(=O)N[C@@H](C)C(=O)N[C@@](C)(Cc1ccccc1)C(=O)N[C@H](C(=O)N[C@H](C(=O)N[C@@](C)(CCCCN)C(=O)NCC(=O)NCC(N)=O)C(C)C)C(C)C)[C@@H](C)CC [compound 134] | 7 pM | 4.9 pM | 6 pM | ≥ 28 nM | ≥ 28 nM | ≥ 28 nM | ≥ 28 nM | 123 pM | 168 pM | 77.6 pM | – | – | – | – |
| CCCCCCCCCCCC(=O)NCCOCCOCC(=O)NCCOCCOCC(=O)NCCCC[C@H](NC(=O)[C@H](C)NC(=O)[C@H](C)NC(=O)[C@H](CCC(=O)O)NC(=O)CNC(=O)[C@H](CCC(=O)O)NC(=O)[C@H](CC(C)C)NC(=O)[C@](C)(Cc1ccccc1)NC(=O)[C@H](CO)NC(=O)[C@](C)(CO)NC(=O)[C@@H](NC(=O)[C@H](CC(=O)O)NC(=O)[C@H](CO)NC(=O)[C@@H](NC(=O)[C@](C)(Cc1ccccc1)NC(=O)[C@H](CO)NC(=O)CNC(=O)[C@H](CCC(=O)O)NC(=O)C(C)(C)NC(=O)[C@@H](N)Cc1c[nH]cn1)[C@@H](C)O)C(C)C)C(=O)N[C@@H](CCC(=O)O)C(=O)N[C@@](C)(Cc1ccccc1)C(=O)N[C@H](C(=O)N[C@@H](C)C(=O)N[C@@](C)(Cc1ccccc1)C(=O)N[C@H](C(=O)N[C@H](C(=O)N[C@@](C)(CCCCN)C(=O)NCC(=O)NCC(N)=O)C(C)C)C(C)C)[C@@H](C)CC [compound 135] | 5.4 pM | 4.5 pM | 5 pM | ≥ 27 nM | ≥ 27 nM | ≥ 27 nM | ≥ 27 nM | 79 pM | 98.6 pM | 59.3 pM | – | – | – | – |
| CCCCCCCCCCCC(=O)NCCOCCOCC(=O)NCCOCCOCC(=O)NCCOCCOCC(=O)NCCCC[C@H](NC(=O)[C@H](C)NC(=O)[C@H](C)NC(=O)[C@H](CCC(=O)O)NC(=O)CNC(=O)[C@H](CCC(=O)O)NC(=O)[C@H](CC(C)C)NC(=O)[C@](C)(Cc1ccccc1)NC(=O)[C@H](CO)NC(=O)[C@](C)(CO)NC(=O)[C@@H](NC(=O)[C@H](CC(=O)O)NC(=O)[C@H](CO)NC(=O)[C@@H](NC(=O)[C@](C)(Cc1ccccc1)NC(=O)[C@H](CO)NC(=O)CNC(=O)[C@H](CCC(=O)O)NC(=O)C(C)(C)NC(=O)[C@@H](N)Cc1c[nH]cn1)[C@@H](C)O)C(C)C)C(=O)N[C@@H](CCC(=O)O)C(=O)N[C@@](C)(Cc1ccccc1)C(=O)N[C@H](C(=O)N[C@@H](C)C(=O)N[C@@](C)(Cc1ccccc1)C(=O)N[C@H](C(=O)N[C@H](C(=O)N[C@@](C)(CCCCN)C(=O)NCC(=O)NCC(N)=O)C(C)C)C(C)C)[C@@H](C)CC [compound 136] | 3.5 pM | 2.5 pM | 3 pM | ≥ 26 nM | ≥ 26 nM | ≥ 26 nM | ≥ 26 nM | 37 pM | 52.6 pM | 21.5 pM | – | – | – | – |
| CC[C@H](C)[C@H](NC(=O)[C@](C)(Cc1ccccc1)NC(=O)[C@H](CCC(=O)O)NC(=O)[C@H](CCCCNC(=O)CC[C@H](NC(=O)CCCCCCCCCCCOc1ccc(C(=O)O)cc1)C(=O)O)NC(=O)[C@H](C)NC(=O)[C@H](C)NC(=O)[C@H](CCC(=O)O)NC(=O)CNC(=O)[C@H](CCC(=O)O)NC(=O)[C@H](CC(C)C)NC(=O)[C@](C)(Cc1ccccc1)NC(=O)[C@H](CO)NC(=O)[C@](C)(CO)NC(=O)[C@@H](NC(=O)[C@H](CC(=O)O)NC(=O)[C@H](CO)NC(=O)[C@@H](NC(=O)[C@](C)(Cc1ccccc1)NC(=O)[C@H](CO)NC(=O)CNC(=O)[C@H](CCC(=O)O)NC(=O)C(C)(C)NC(=O)[C@@H](N)Cc1c[nH]cn1)[C@@H](C)O)C(C)C)C(=O)N[C@@H](C)C(=O)N[C@@](C)(Cc1ccccc1)C(=O)N[C@H](C(=O)N[C@H](C(=O)N[C@@](C)(CCCCN)C(=O)NCC(=O)NCC(N)=O)C(C)C)C(C)C [compound 137] | 6.6 pM | 3.8 pM | 5.2 pM | – | – | – | – | 50 pM | 63.7 pM | 36.2 pM | ≥ 27 nM | ≥ 27 nM | ≥ 27 nM | ≥ 27 nM |

Reference: patent US10414811B2, “Protease-resistant lipidated GLP-1 analogs” (MEDIMMUNE LIMITED, priority 2015, dated 2019)
